Test results taken from ChEMBL document CHEMBL1155728, “New steroid glycosides from the starfish Asterias rathbuni” (J Nat Prod, 2001).

Key:
Set-up in all cases: species or system Egg
[1] = Inhibition of cell division of fertilized eggs of Strongylocentrotus intermedius
[2] = Inhibition of cell division of fertilized eggs of Strongylocentrotus intermedius at 7 X 10 ' -5 M; conditions: fertilized sea urchin eggs
[3] = Inhibition of cell division of fertilized eggs of Strongylocentrotus intermedius at 2.9 X 10 ' -5 M; conditions: fertilized sea urchin eggs

| SMILES | IC100 [1] [×10⁻⁴ M] | further results |
| --- | --- | --- |
| CC(C)[C@H](CC[C@@H](C)[C@H]1C[C@H](O)[C@H]2[C@@H]3C[C@@H](O)[C@@]4(O)C[C@@H](O)CC[C@]4(C)[C@H]3CC[C@@]21C)O[C@@H]1OC[C@@H](O)[C@H](O)[C@H]1O [RATHBUNIOSIDE R2] | 1.7 | – |
| CC(C)[C@H](CC[C@@H](C)[C@H]1C[C@H](OS(=O)(=O)[O-])[C@H]2[C@@H]3C[C@H](O)[C@H]4C[C@@H](O)CC[C@]4(C)[C@H]3CC[C@@]21C)O[C@@H]1OC[C@@H](O)[C@H](O)[C@H]1O.[Na+] [AMURENSOSIDE A] | 1.9 | – |
| CC(C)[C@H](CC[C@@H](C)[C@H]1C[C@@H](O)[C@H]2[C@@H]3C[C@H](O)[C@H]4C[C@@H](O)CC[C@]4(C)[C@H]3CC[C@@]21C)O[C@@H]1OC[C@@H](O)[C@H](O)[C@H]1O [RATHBUNIOSIDE R1] | – | inhibition at 70 µM [2]: 100% |
| CC(C)=CC(=O)C[C@@H](C)[C@H]1CC[C@H]2[C@@H]3C[C@H](O)[C@H]4C[C@@H](OS(=O)(=O)O)CC[C@]4(C)C3=CC[C@]12C | – | inhibition at 29 µM [3]: 100% |
